The record followed here is US20250152719A1, “FUSED IMIDE DERIVATIVE” (Chia Tai Tianqing Pharmaceutical Group Co., Ltd., priority 2021, published 2025).

SMILES strings stand for the structures. Some results are limits rather than exact numbers.

Broadly, the IC50 is the concentration that gives 50% inhibition.

One data set relates to TMD8-BTK(C481S) cells. Nature of the data set: Inhibitory activity on TMD8-BTK(C481S) cell proliferation (CCK-8). Format: cell-based. Particulars: 72 h, 72 h incubation. In short, it runs like this:
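Cells seeded at 8×10^4 cells/mL, incubated overnight, then treated in duplicate with compounds at 5000 nM-0.31 nM for 72 h. Viability by CCK-8 (4 h, absorbance 450 nm); IC50 from four-parameter dose-response fits.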

Data set [1] is described as follows: In vitro liver microsomal stability, mouse. The settings on record: 0.5 mg/mL microsomes, NADPH, 37° C., 1 h. Background: Liver microsomes are a subcellular fraction often used to study metabolism.
Experimental: (§1) Liver microsome incubation samples were prepared by mixing a PBS buffer (pH 7.4), a liver microsome solution (0.5 mg/mL), a test compound, and an NADPH+MgCl2 solution and incubated at 37° C. and 300 rpm for 1 h. Zero-hour samples were prepared by mixing a PBS buffer (pH 7.4), a liver microsome solution (0.5 mg/mL), and a test compound. An acetonitrile solution containing an internal standard was added to the samples, and supernatants were prepared by protein precipitation, diluted, and then assayed by LC/MS/MS.
The target in the next data set is BTK(C481S) kinase (Homo sapiens (Human), UniProt Q06187, C481S). Nature of the data set: Inhibitory activity on BTK(C481S) kinase. Format: biochemical. Particulars: ATP 10 μM. On the procedure: The Assay Buffer was prepared, and the composition of the Assay Buffer was 50 mM Hepes (Gibco, 15630), 10 mM MgCl2, 2 mM DTT, 1 mM EGTA, and 0.010% Tween 20. BTK(C481S) kinase (Carna Biosciences, 08-547), ATP (Sigma, A7699), and ULight-poly GT (PE, TRF0100-M) working solutions were prepared using the Assay Buffer. EDTA and Eu-labeled anti-phosphotyrosine (PT66) antibody (PE, AD0069) working solutions were prepared using the Detection Buffer. 6 μL of BTK(C481S) kinase at the corresponding concentration (final concentration: 0.005 ng/μL) was added to the compound groups and the control group, while 6 μL of the Assay Buffer was added to the blank group, and then the compounds (with the concentration set to 1000 nM at the maximum, 4-fold dilution, 7 concentration gradients) were added using a nanoliter pipettor. The mixture was incubated at room temperature for 30 min, and then 4 μL of the mixture of ATP (final concentration: 10 μM) and ULight-poly GT (final concentration: 100 nM) was added. After incubation at room temperature for 2 h, 5 μL of EDTA (final concentration: 10 mM) was added to stop the reaction, and finally 5 μL of antibody (final concentration: 2 nM) was added. After incubation at room temperature for 1 h, signal values were detected at 665/615 nM, the four-parameter analysis was performed, the dose-response curves were fit, and IC50 was calculated.
BTK(C481S) kinase, sequence (Q06187 whole entry C481S): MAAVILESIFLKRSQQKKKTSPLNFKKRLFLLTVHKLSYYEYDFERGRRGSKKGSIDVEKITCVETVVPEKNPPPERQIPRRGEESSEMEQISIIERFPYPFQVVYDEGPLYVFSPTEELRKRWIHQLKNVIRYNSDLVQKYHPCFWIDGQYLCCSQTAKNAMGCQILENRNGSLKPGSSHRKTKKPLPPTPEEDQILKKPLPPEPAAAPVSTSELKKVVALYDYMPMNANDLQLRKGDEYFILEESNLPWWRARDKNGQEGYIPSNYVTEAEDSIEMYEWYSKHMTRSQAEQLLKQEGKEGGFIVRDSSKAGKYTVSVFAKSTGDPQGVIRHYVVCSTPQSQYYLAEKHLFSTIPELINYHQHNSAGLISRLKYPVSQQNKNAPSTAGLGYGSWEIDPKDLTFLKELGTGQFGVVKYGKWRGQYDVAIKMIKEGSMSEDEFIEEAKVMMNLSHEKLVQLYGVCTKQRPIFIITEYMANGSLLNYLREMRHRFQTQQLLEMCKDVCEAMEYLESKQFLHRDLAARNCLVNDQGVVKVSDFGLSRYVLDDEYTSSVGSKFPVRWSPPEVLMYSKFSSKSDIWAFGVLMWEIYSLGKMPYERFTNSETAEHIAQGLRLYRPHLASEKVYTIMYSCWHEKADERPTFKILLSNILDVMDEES

Another data set concerns TMD-8 xenograft tumors. Nature of the data set: In vivo drug efficacy, TMD-8 mouse subcutaneous xenograft tumors. Further details: species or system NOD-SCID mice. Particulars: 30 mg/kg, qd, i.g. How it is done:
TMD-8 mouse subcutaneous xenograft tumors: TMD-8 (WT) cells at a concentration of 1×10^8/mL were inoculated under aseptic conditions into the right side armpit of NOD-SCID mice at 0.1 mL/mouse. After subcutaneous grafting, the animals were divided into groups with 6 animals in each group when the tumor volume reached about 188 mm^3 (or 200 mm^3):
model group: vehicle, 6 mice; compound administration groups: 30 mg/kg, qd, i.g., 6 mice.
The vehicle or the test compound was intragastrically given at a volume of 4 mL/kg, once daily for 16 consecutive days. The tumor volume was measured 2-3 times a week, and meanwhile, the mice were weighed and the data were recorded; the general behaviors of the animals were observed every day. After all dosing was complete, the animals were sacrificed on day 17, and the tumors were removed and weighed.
The tumor volume and the tumor growth inhibition were calculated using the following formulae:
Tumor volume (TV)=(Length×Width^2)/2.
Tumor growth inhibition (TGI)=(1−tumor weight of treatment group/tumor weight of model group)×100%.

A further data set concerns OCI-LY10 cells. Nature of the data set: Inhibitory activity on OCI-LY10 cell proliferation (CCK-8). Type of data set: cell-based. In short, it runs like this:
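Cells seeded at 1×10^5 cells/mL and incubated overnight were exposed in duplicate to final compound concentrations of 5000 nM-0.31 nM for 72 h. CCK-8 was added for 2.5 h and absorbance read at 450 nm. IC50 was obtained from four-parameter dose-response fits.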

Data set [2] deals with OCI-LY10-BTK(C481S) cells. Nature of the data set: Inhibitory activity on OCI-LY10-BTK(C481S) cell proliferation (CCK-8). Format: cell-based. The settings on record: 72 h incubation, IC50 per method, unit inferred. The procedure, abridged:
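Logarithmic-phase OCI-LY10 BTK(C481S) cells at 5×10^4 cells/mL were treated in duplicate with compounds at final 5000 nM-0.31 nM for 72 h. CCK-8 was added for 3 h and absorbance read at 450 nm. IC50 came from four-parameter dose-response fits.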

The nature of data set [3]: In vitro liver microsomal stability, human. Particulars: 0.5 mg/mL microsomes, NADPH, 37° C., 1 h. Format: in vitro ADME.
Experimental: as §1
Where [4] appears, read: Homo sapiens, OCI-Ly10, 72 h incubation.

On to `CN1CCN([C@@H]2CCCN(c3cnc(C(N)=O)c(Nc4ccc(C5CCN(C6CN(c7ccc8c(C9CCC(=O)NC9=O)noc8c7)C6)CC5)cc4)n3)C2)C1=O` (some centres unmarked) [Compound 10], for which the IC50 in the data set on TMD8-BTK(C481S) cells was 2.4 nM; against BTK(C481S) kinase, 19.6 nM; with OCI-LY10 cells (setting [4]), less than 0.31 nM. For the same compound, the “Mouse liver microsome Residuals at 60 min” value in data set [1] is reported as 65.4%. Also, the “TGI d 17” value with TMD-8 xenograft tumors (16 days, tumor weight on day 17) is 97.5%. Also, the “TV on d 0 Mean ± SD” value in the data set on TMD-8 xenograft tumors (day 0 (baseline at grouping)) is on record as 226 ± 29 mm^3. For the same compound, the “TV on d 12 Mean ± SD” value in the data set with TMD-8 xenograft tumors (day 12) is listed as 235 ± 57 mm^3. Further, the “TV on d 15 Mean ± SD” value in the data set with TMD-8 xenograft tumors (day 15) worked out at 209 ± 60 mm^3.
For the compound `CN1CCN([C@@H]2CCCN(c3cnc(C(N)=O)c(Nc4ccc(N5CCC(CN6CCc7ccc8c(C9CCC(=O)NC9=O)noc8c7CC6)CC5)cc4)n3)C2)C1=O` (some centres unmarked) [Compound 27], the IC50 is 0.062 nM in data set [2] (72 h), 9 nM on BTK(C481S) kinase and less than 0.31 nM in the data set with OCI-LY10 cells (setting [4]). The “Human liver microsome Residuals at 60 min” value in data set [3] stood at 56.0%.
`CN1CCN([C@@H]2CCCN(c3cnc(C(N)=O)c(Nc4ccc(C5CCC(N6Cc7ccc8c(C9CCC(=O)NC9=O)noc8c7C6)CC5)cc4)n3)C2)C1=O` (some centres unmarked) [Compound 33]: the IC50 was 0.37 nM in data set [2], 22 nM at BTK(C481S) kinase and less than 0.31 nM in the data set on OCI-LY10 cells (72 h incubation). Moreover, the “Mouse liver microsome Residuals at 60 min” value in data set [1] was determined as 71.0%. The “Human liver microsome Residuals at 60 min” value in data set [3] is 55.0%.
